US11571426B2, “Compositions for preventing or treating lupus” (CHONG KUN DANG PHARMACEUTICAL CORP., priority 2017, dated 2023)

How the values were obtained:
NZB/W F1 female mice [1] = experiment: Weight recovery in SLE model mouse; assay type: in vivo
Protocol: (§1) 80 NZB/W F1 female mice (four weeks old) were purchased from Jackson Laboratory and maintained in an SPF breeding room with five mice per cage. Their weight and urine protein were measured at 24 weeks after birth (right before administration), and then all the animals except those having too much urine protein were divided into groups as shown in a table 2 below such that the urine protein and weight might be evenly distributed among the groups.
(§2) Then, the mice were administered as described in the table 2 once a day for about 19 weeks from 24 weeks after birth to 42 weeks after birth.

NZB/W F1 female mice [2] = experiment: Proteinuria and UP/C in SLE model mouse; assay type: in vivo; details: for incidence rate of severe proteinuria of 300 mg/dl or more: 42 weeks old
Protocol: as §1, §2
(§3) The fresh urine of mice was collected before and after administration every two weeks, while blood collection was performed before and after administration every four weeks. The serum was prepared by centrifugation of the collected blood and then kept at −70° C.
A urine creatinine concentration was obtained by diluting the urine 100-fold, then measuring the concentration thereof by means of a serum chemistry analyzer (Dri-CHEM 3000 colorimetric analyzer, Fujifilm), and then calibrating the measured value using a dilution factor.

NZB/W F1 female mice [3] = experiment: Serum anti-dsDNA antibodies (ELISA) in SLE model mouse; assay type: in vivo
Protocol: as §1, §2, §3
To identify if the pharmaceutical composition according to the present invention may reduce an increased concentration of anti-dsDNA antibodies shown in the SLE model animal, a concentration of anti-dsDNA antibodies in mouse serum was measured by means of a mouse anti-dsDNA ELISA (enzyme-linked immunosorbent assay) kit (Shibayagi).

NZB/W F1 female mice [4] = experiment: IgG and C3 depositions in glomerulus (fluorescence immunostaining); assay type: in vivo, mouse
Protocol: as §1, §2
To identify a therapeutic effect of the inventive pharmaceutical composition on kidney in the SLE disease model, a degree of IgG and C3 depositions in glomerulus was measured.
With regard to a remaining half of the left kidney collected during the autopsy performed in Example 9, a frozen tissue block was prepared for a frozen section by means of an OCT compound, and then IgG and C3 fluorescence immunostaining was performed by means of a method known in the technical field to which the present invention pertains.
Specifically, the frozen tissue was sectioned in a thickness of 4 μm, then fixed in cold acetone for five minutes, and then washed in phosphate buffered saline (PBS) twice for five minutes. To get rid of a non-specific reaction, a resulting tissue was blocked by means of the PBS solution with the addition of 1% bovine serum albumin and 0.05% tween-20 for 30 minutes, and then reacted at room temperature for one hour by means of FITC-conjugated goat anti-mouse IgG antibodies (1:200, AP308F, Merck Millipore) or FITC-conjugated goat anti-mouse C3 antibodies (1:100, Cappel 55500, MP Bio). After that, the resulting tissue was washed with the PBS for five minutes three times, then covered with a cover glass by means of a mounting medium including DAPI, and then observed by means of a confocal laser scanning microscopy (LSM 700, ZEISS).

NZB/W F1 female mice [5] = experiment: Serum cytokine level (Milliplex MAP kit) in SLE disease mouse; assay type: in vivo
Protocol: as §1, §2, §3
To analyze an effect of the inventive pharmaceutical composition on a change in a serum cytokine level in the SLE disease mouse, a level of GM-CSF, IFN-γ, IL-1α, IL-1β, IL-10, IL-12(p70), IL-15, IL-17a, IL-2, IL-4, IL-6, TNF-α, […], IL-22 and IL-23 in serum was measured by means of a Mouse cytokine Milliplex MAP kit (Merck Millipore), wherein the results thereof were shown in a table 3.
Data obtained from groups were compared using a Kruskal-Wallis (†p<0.05) *p<0.05 versus C group (Mann-Whitney U-test)

NZB/W F1 female mice [6] = experiment: Immunoglobulin isotypes in serum (Luminex); assay type: in vivo, mouse; details: 50 mg/kg dosed group vs negative control
Protocol: as §1, §2
A concentration of immunoglobulin isotypes (IgG1, IgG2a, IgG2b, IgG3 and IgM) in the serum obtained during the mouse autopsy was measured by means of Luminex assay kit for mouse isotype (R&D systems, Minneapolis, Minn.).

NZB/W F1 female mice [7] = experiment: T cell populations in spleen (FACS) in SLE disease mouse; assay type: in vivo
[8] = 50 mg/kg dosed group vs negative control
[9] = group D, 10 mg/kg/day i.p., n =10
[10] = group E, 30 mg/kg/day i.p., n = 14
[11] = group F, 50 mg/kg/day i.p., n = 14
[12] = mice of the experimental groups

## O=C(NO)c1ccc(CN(C(=O)N2CCOCC2)c2cccc(C(F)(F)F)c2)cc1 [Compound 374, N-(4-(hydroxycarbamoyl)benzyl)-N-(3-(trifluoromethyl)phenyl)morpholine-4-carboxamide]
NZB/W F1 female mice [1]; 10 mg/kg dosed group, from about 40 weeks
  weight: recovered to the same level as that of the positive control group
NZB/W F1 female mice [1]; 30 and 50 mg/kg dosed groups, vs positive control
  weight recovery: more excellent weight recovery effect
NZB/W F1 female mice [2]; 10 mg/kg dosed group
  incidence rate of severe proteinuria of 300 mg/dl or more: 60%
NZB/W F1 female mice [2]; 30 mg/kg dosed group
  incidence rate of severe proteinuria of 300 mg/dl or more: 6.7%
NZB/W F1 female mice [2]; 50 mg/kg dosed group
  incidence rate of severe proteinuria of 300 mg/dl or more: 0%
NZB/W F1 female mice [2]; 36-week old, all the experimental groups
  UP/C (ratio of urine protein:creatine): remarkably decreased
NZB/W F1 female mice [2]; 42-week old, all experimental groups except the 10 mg/kg dosed group, vs negative control
  UP/C value: decreased more
NZB/W F1 female mice [2]; experimental groups, 24 to 42 week after birth
  incidence rate of severe proteinuria: remarkably improved
NZB/W F1 female mice [3]; [8]
  decrease of serum concentration of anti-dsDNA antibodies: two-fold
NZB/W F1 female mice [3]; after 28 week after birth, all the experimental groups, vs negative control
  serum concentration of anti-dsDNA antibodies: tended to decrease more
NZB/W F1 female mice [4]; 50 mg/kg dosed group
  level of C3 depositions in kidney: remarkably decreased
  level of IgG depositions in kidney: remarkably decreased
NZB/W F1 female mice [4]; experimental groups
  level of C3 depositions in kidney: decreased
  level of IgG depositions in kidney: decreased
NZB/W F1 female mice [5]; [9]
  GM-CSF in serum: 2.65 ± 2.65 pg/mL
  IFN-γ in serum: 1.06 ± 1.06 pg/mL
  IL17 in serum: 10.40 ± 3.86 pg/mL
  IL22 in serum: 27.05 ± 9.95 pg/mL
  IL-1α in serum: 371.96 ± 82.72 pg/mL
  IL-1β in serum: 1.27 ± 0.65 pg/mL
  IL-2 in serum: 1.91 ± 1.77 pg/mL
  IL-4 in serum: 1.74 ± 0.19 pg/mL
  IL-6 in serum: 7.21 ± 2.34 pg/mL
  IL-10 in serum: 25.00 ± 8.01 pg/mL
  IL-12(70) in serum: 1.94 ± 1.17 pg/mL
  IL-15 in serum: 184.36 ± 88.58 pg/mL
  IL-23 in serum: 1.96 ± 1.96 pg/mL
  TGF-β in serum: 73356.45 ± 7258.05 pg/mL
  TNF-α in serum: 7.91 ± 2.67 pg/mL
NZB/W F1 female mice [5]; [10]
  GM-CSF in serum: 5.32 ± 4.06 pg/mL
  IFN-γ in serum: 6.60 ± 4.07 pg/mL
  IL17 in serum: 21.14 ± 14.59 pg/mL
  IL22 in serum: 13.00 ± 4.40 pg/mL
  IL-1α in serum: 458.40 ± 90.79 pg/mL
  IL-1β in serum: 74.66 ± 70.56 pg/mL
  IL-2 in serum: 9.32 ± 4.75 pg/mL
  IL-4 in serum: 8.60 ± 6.80 pg/mL
  IL-6 in serum: 21.23 ± 13.62 pg/mL
  IL-10 in serum: 56.55 ± 39.16 pg/mL
  IL-12(70) in serum: 74.50 ± 63.63 pg/mL
  IL-15 in serum: 162.41 ± 53.62 pg/mL
  IL-23 in serum: 100.56 ± 100.56 pg/mL
  TGF-β in serum: 58807.36 ± 6685.72 pg/mL
  TNF-α in serum: 16.25 ± 13.46 pg/mL
NZB/W F1 female mice [5]; [11]
  GM-CSF in serum: 1.89 ± 1.89 pg/mL
  IFN-γ in serum: 2.07 ± 1.44 pg/mL
  IL-1α in serum: 629.16 ± 128.47 pg/mL
  IL-1β in serum: 3.86 ± 2.09 pg/mL
  IL-2 in serum: 4.09 ± 2.63 pg/mL
  IL-4 in serum: 3.70 ± 1.73 pg/mL
  IL-6 in serum: 5.69 ± 2.39 pg/mL
  IL-12(70) in serum: 15.62 ± 12.09 pg/mL
  IL-23 in serum: 41.34 ± 41.34 pg/mL
NZB/W F1 female mice [5]; [12]
  TGF-β level: increased
  serum concentration of IL-10: decreased
  serum concentration of IL-12: decreased
  serum concentration of IL-15: decreased
  serum concentration of IL-17: decreased
  serum concentration of IL-22: decreased
  serum concentration of TNF-α: decreased
NZB/W F1 female mice [6]
  concentration of IgG1 in serum: decreased
  concentration of IgG2a in serum: decreased
  concentration of IgG2b in serum: decreased
  concentration of IgG3 in serum: decreased
  concentration of IgM in serum: remarkably decreased
NZB/W F1 female mice [7]; 10 mg/kg dosed group, vs negative control
  decrease of ratio of CD138+ cells: 21.2%
NZB/W F1 female mice [7]; 30 mg/kg dosed group, vs negative control
  decrease of ratio of CD138+ cells: 25.2%
NZB/W F1 female mice [7]; [8]
  decrease of ratio of CD138+ cells: 31.6%
